# Reference: patent publication US8455491B2, “6-cycloamino-3-(pyridazin-4-yl)imidazo[1,2-b]pyridazine and derivatives and pharmaceutical compositions comprising the same” (Sanofi, priority 2007, dated 2013)
# Target: T1, casein kinase 1 epsilon (CK1 epsilon) (Homo sapiens, UniProt P49674)
# T1 construct: Invitrogen Corporation (named as alternative)
# Test: Filter-plate assay of ATP-33P, inhibition of casein phosphorylation by CK1 epsilon
# Type: biochemical
# Conditions: casein substrate, ATP 10 μM, 2 hours at ambient temperature
# Description: The capacity of the compounds of the invention to inhibit the phosphorylation of casein by casein kinase 1 epsilon and delta may be evaluated according to the procedure described in US 2005/0131012.
# Filter-Plate Assay of ATP-^33P for the Screening of CK1 Epsilon Inhibitors:
# The effect of the compounds on inhibition of the phosphorylation of casein by the enzyme casein kinase 1 epsilon (CK1 epsilon) is measured, using a casein assay with filtration of ATP-^33P in vitro.
# Casein kinase 1 epsilon (0.58 mg/ml) is obtained via fermentation and purification processes performed according to methods that are well known to those skilled in the art, or may also be obtained from Invitrogen Corporation™ (human CK1 epsilon).
# The compounds are tested at five different concentrations so as to generate IC50 values, i.e. the concentration at which a compound is capable of inhibiting the enzymatic activity by 50%, or alternatively the percentage of inhibition at a concentration of 10 micromolar.
# “U”-bottomed Falcon plates are prepared by placing 5 μL of solutions of the compounds according to the invention at concentrations of 10, 1, 0.1, 0.01 or 0.001 μM in various wells. The solutions of the compounds according to the invention at these various concentrations are prepared by diluting in a test buffer (50 mM Tris, pH 7.5, […], 2 mM DTT and 1 mM EGTA) a stock solution in DMSO at a concentration of 10 mM. Next, 5 μL of dephosphorylated casein are added to a final concentration of 0.2 μg/μL, 20 μl of CK1 epsilon to a final concentration of 3 ng/μl, and 20 μl of ATP-^33P to a final concentration of 0.02 μCi/μl mixed with cold ATP (10 μM final—approximately 2×10^6 CPM per well). The final total test volume per well is equal to 50 μl.
# The “U”-bottomed Falcon® test plate mentioned above is vortexed, and then incubated at ambient temperature for 2 hours. After 2 hours, the reaction is stopped by adding an ice-cold solution of 65 μl of ATP (2 mM) prepared in test buffer.
# 100 μl of the reaction mixture are then transferred from the “U”-bottomed Falcon® plate into Millipore® MAPH filter plates, preimpregnated with 25 μl of ice-cold 100% TCA. […]
# The plates are left to dry overnight at ambient temperature. […] The radiation emitted by each well is then measured for 2 minutes in a Packard® Topcount NXT scintillation counter, in which the values of CPM/well are measured.
# The percentage inhibition of the capacity of the enzyme to phosphorylate the substrate (casein) is determined for each concentration of compound tested. These inhibition data expressed as percentages are used to calculate the IC50 value for each compound compared with the controls.
# The kinetic studies determined the KM value for ATP as being 21 μM in this test system.
# T1 sequence (P49674 whole entry): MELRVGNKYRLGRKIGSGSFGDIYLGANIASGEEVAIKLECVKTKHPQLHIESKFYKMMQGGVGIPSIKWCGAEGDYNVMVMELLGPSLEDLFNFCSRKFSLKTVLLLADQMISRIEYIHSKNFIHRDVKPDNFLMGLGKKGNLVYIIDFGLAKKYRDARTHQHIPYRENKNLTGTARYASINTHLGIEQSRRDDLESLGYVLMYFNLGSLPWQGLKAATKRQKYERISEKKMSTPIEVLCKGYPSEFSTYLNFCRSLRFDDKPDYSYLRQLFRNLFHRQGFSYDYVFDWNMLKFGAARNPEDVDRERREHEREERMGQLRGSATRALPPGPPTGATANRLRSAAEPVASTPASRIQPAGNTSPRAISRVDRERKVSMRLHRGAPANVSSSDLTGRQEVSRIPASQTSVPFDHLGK
row,SMILES,IC50 [nM]
1,"CC(C)(O)CCN1CCN(c2ccc3nc(-c4ccc(F)cc4)c(-c4ccnnc4)n3n2)CC1 [compound 21, 4-{4-[2-(4-fluorophenyl)-3-pyridazin-4-yl-imidazo[1,2-b]pyridazin-6-yl]piperazin-1-yl}-2-methylbutan-2-ol]",134 to 166
2,"CC(C)N1CC2CN(c3ccc4nc(-c5ccc(F)cc5)c(-c5ccnnc5)n4n3)CC2C1 (stereo not drawn) [compound 28, 2-(4-fluorophenyl)-6-(5-isopropylhexahydropyrrolo[3,4-c]pyrrol-2-(1H)-yl)-3-pyridazin-4-yl-imidazo[1,2-b]pyridazine]",54 to 69

# Test system: not given
# Test: not given
# Conditions: not given
row,SMILES,melting point [°C]
1,"FCC1CN(c2ccc3nc(-c4ccc(F)cc4)c(-c4ccnnc4)n3n2)CCN1 (racemic) [compound 40, (+/−)-6-(3-fluoromethylpiperazin-1-yl)-2-(4-fluorophenyl)-3-pyridazin-4-ylimidazo[1,2-b]pyridazine]",184 to 189
2,"CC1(C)CN(c2ccc3nc(-c4ccc(F)cc4)c(-c4ccnnc4)n3n2)CCN1 [Compound No. 3, 6-(3,3-dimethylpiperazin-1-yl)-2-(4-fluorophenyl)-3-pyridazin-4-yl-imidazo[1,2-b]pyridazine]",226 to 228
3,"C[C@@H]1CN(c2ccc3nc(-c4ccc(F)cc4)c(-c4ccnnc4)n3n2)C[C@H](C)N1 [compound 4, 6-(cis-3,5-dimethylpiperazin-1-yl)-2-(4-fluorophenyl)-3-pyridazin-4-yl-imidazo[1,2-b]pyridazine]",197 to 199
4,"FCCN1CCN(c2ccc3nc(-c4ccccc4)c(-c4ccnnc4)n3n2)CC1 [compound 7, 6-[4-(2-fluoroethyl)piperazin-1-yl]-2-phenyl-3-pyridazin-4-yl-imidazo[1,2-b]pyridazine]",156 to 158
5,"CC(C)N1CCN(c2ccc3nc(-c4cccc(F)c4)c(-c4ccnnc4)n3n2)CC1 [compound 10, 2-(3-fluorophenyl)-6-(4-isopropylpiperazin-1-yl)-3-pyridazin-4-yl-imidazo[1,2-b]pyridazine]",197 to 199
6,"Cc1cc(C)cc(-c2nc3ccc(N4CCN(C(C)C)CC4)nn3c2-c2ccnnc2)c1 [compound 13, 2-(3,5-dimethylphenyl)-6-(4-isopropylpiperazin-1-yl)-3-pyridazin-4-yl-imidazo[1,2-b]pyridazine]",183 to 184
7,"CC(C)(O)CN1CCN(c2ccc3nc(-c4ccc(F)cc4)c(-c4ccnnc4)n3n2)CC1 [compound 20, 1-{4-[2-(4-fluorophenyl)-3-pyridazin-4-yl-imidazo[1,2-b]pyridazin-6-yl]piperazin-1-yl}-2-methylpropan-2-ol]",200 to 202
8,"CC(C)(O)CCN1CCN(c2ccc3nc(-c4ccc(F)cc4)c(-c4ccnnc4)n3n2)CC1 [compound 21, 4-{4-[2-(4-fluorophenyl)-3-pyridazin-4-yl-imidazo[1,2-b]pyridazin-6-yl]piperazin-1-yl}-2-methylbutan-2-ol]",148 to 150
9,"Fc1ccc(-c2nc3ccc(N4C[C@@H]5C[C@H]4CN5)nn3c2-c2ccnnc2)cc1 [compound 23, 6-((1S,4S)-2,5-diazabicyclo[2.2.1]hept-2-yl)-2-(4-fluorophenyl)-3-pyridazin-4-yl-imidazo[1,2-b]pyridazine]",205 to 207
10,"OCCN1C[C@@H]2C[C@H]1CN2c1ccc2nc(-c3ccc(F)cc3)c(-c3ccnnc3)n2n1 [compound 24, 2-{5-[2-(4-fluorophenyl)-3-pyridazin-4-yl-imidazo[1,2-b]pyridazin-6-yl]-(1S,4S)-2,5-diazabicyclo[2.2.1]hept-2-yl}-ethanol]",175 to 177
11,"CC(C)N1C[C@@H]2C[C@H]1CN2c1ccc2nc(-c3ccc(F)cc3)c(-c3ccnnc3)n2n1 [compound 25, 2-(4-fluorophenyl)-6-(5-isopropyl-(1S,4S)-2,5-diazabicyclo[2.2.1]hept-2-yl)-3-pyridazin-4-yl-imidazo[1,2-b]pyridazine]",201 to 203
12,"Fc1ccc(-c2nc3ccc(N4CCC5(CCCNC5)CC4)nn3c2-c2ccnnc2)cc1 [compound 31, 9-[2-(4-fluorophenyl)-3-pyridazin-4-yl-imidazo[1,2-b]pyridazin-6-yl]-2,9-diaza-spiro[5.5]undecane]",203 to 205
13,"Fc1ccc(-c2nc3ccc(N4CCC5(CC4)CNCCO5)nn3c2-c2ccnnc2)cc1 [compound 32, 9-[2-(4-fluorophenyl)-3-pyridazin-4-yl-imidazo[1,2-b]pyridazin-6-yl]-1-oxa-4,9-diaza-spiro[5.5]undecane]",212 to 214
14,"Fc1ccc(-c2nc3ccc(N4CCC(N5CCCC5)C4)nn3c2-c2ccnnc2)cc1 (stereo not drawn) [compound 33, 6-[1,3]bipyrrolidinyl-1′-yl-2-(4-fluorophenyl)-3-pyridazin-4-yl-imidazo[1,2-b]pyridazine]",182 to 184
15,"Fc1ccc(-c2nc3ccc(N4CCC(N5CCCC5)CC4)nn3c2-c2ccnnc2)cc1 [compound 34, 2-(4-fluorophenyl)-3-pyridazin-4-yl-6-(4-pyrrolidin-1-yl-piperidin-1-yl)-imidazo[1,2-b]pyridazine]",196 to 198
16,"CN1CC2CN(c3ccc4nc(-c5ccccc5)c(-c5ccnnc5)n4n3)CC2C1 (stereo not drawn) [compound 41, 6-(5-methylhexahydropyrrolo[3,4-c]pyrrol-2(1H)-yl)-2-phenyl-3-pyridazin-4-ylimidazo[1,2-b]pyridazine]",154 to 157
17,"CN1CC2CN(c3ccc4nc(-c5cccc(F)c5)c(-c5ccnnc5)n4n3)CC2C1 (stereo not drawn) [compound 42, 2-(3-fluorophenyl)-6-(5-methylhexahydropyrrolo[3,4-c]pyrrol-2(1H)-yl)-3-pyridazin-4-ylimidazo[1,2-b]pyridazine]",168 to 170
18,"Cc1cc(N2CC3CN(C)CC3C2)nn2c(-c3ccnnc3)c(-c3ccc(F)cc3)nc12 (stereo not drawn) [compound 44, 2-(4-fluorophenyl)-8-methyl-6-(5-methylhexahydropyrrolo[3,4-c]pyrrol-2(1H)-yl)-3-pyridazin-4-ylimidazo[1,2-b]pyridazine]",255 to 257
19,"CN1CC2CN(c3ccc4nc(-c5ccc(F)c(F)c5)c(-c5ccnnc5)n4n3)CC2C1 (stereo not drawn) [compound 45, 2-(3,4-difluorophenyl)-6-(5-methylhexahydropyrrolo[3,4-c]pyrrol-2(1H)-yl)-3-pyridazin-4-ylimidazo[1,2-b]pyridazine]",186 to 188
